Test results as given in patent publication EP1763509B1, “ALPHA-HELICAL MIMETICS” (THE WALTER AND ELIZA HALL INSTITUTE OF MEDICAL RESEARCH, priority 2004, dated 2006).

Experiments:
Bcl-xLΔ25 = molecular target: T1, Bcl-xLΔ25 (Homo sapiens, UniProt Q07817); assay: Alphascreen GST competition binding assay, benzoylurea compounds vs Biotinylated Bim BH3-26 peptide on GST tagged Bcl-xL ΔC25 protein; conditions: GST tagged Bcl-xL ΔC25 protein 0.6 nM, Biotinylated Bim BH3-26 peptide 5.0 nM, 4 hours at room temperature; n.b. = not binding in the assay conditions
T1 construct: GST tagged Bcl-xL ΔC25 protein
T1 sequence (Q07817 1-208 limits assumed, stated change not applied): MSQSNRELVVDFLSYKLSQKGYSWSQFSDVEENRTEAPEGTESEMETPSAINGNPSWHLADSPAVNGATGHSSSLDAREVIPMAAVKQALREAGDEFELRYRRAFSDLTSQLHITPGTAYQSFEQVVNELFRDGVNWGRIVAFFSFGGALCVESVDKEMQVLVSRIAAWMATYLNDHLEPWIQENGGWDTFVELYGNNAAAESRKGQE

Bcl-wΔ29 = molecular target: T2, Bcl-wΔ29 (Homo sapiens, UniProt Q92843); assay: Alphascreen GST competition binding assay, benzoylurea compounds vs Biotinylated Bim BH3-26 peptide on GST tagged Bclw ΔC29 protein; conditions: GST tagged Bclw ΔC29 protein 0.05 nM, Biotinylated Bim BH3-26 peptide 3.0 nM, 4 hours at room temperature; values marked a tested in a separate experiment; n.b. = not binding in the assay conditions
T2 construct: GST tagged Bclw ΔC29 protein
T2 sequence (Q92843 1-164 limits assumed): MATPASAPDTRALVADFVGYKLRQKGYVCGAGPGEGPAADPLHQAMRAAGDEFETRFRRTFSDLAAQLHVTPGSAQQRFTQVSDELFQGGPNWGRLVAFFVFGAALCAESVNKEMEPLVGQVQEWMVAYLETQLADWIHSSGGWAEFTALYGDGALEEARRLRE

SMILES | IC50 (Bcl-wΔ29) [µM] | further results
CCCN(C(=O)N[C@@H](CSCC(CC)CC)C(=O)O)C(=O)c1cccc(C#Cc2ccccc2)c1 [(126)] |  | IC50 (Bcl-xLΔ25): 90 µM
CC(C)CCN(C(=O)N[C@@H](CSCC(C)C)C(=O)O)C(=O)c1cccc(C#Cc2ccccc2)c1 [(132)] |  | IC50 (Bcl-xLΔ25): 24 µM
CCCN(C(=O)N[C@@H](CSCc1ccccc1)C(=O)O)C(=O)c1ccc(-c2ccc(Cl)c(Cl)c2)cc1 [(65)] | 60 | 
CCCN(C(=O)NCC(=O)O)C(=O)c1cccc(-c2ccccc2)c1 [(71)] |  | Bcl-wΔ29 IC50 (µM) (Bcl-wΔ29): n.b.^b
CCCN(C(=O)N[C@@H](Cc1ccc(O)cc1)C(=O)O)C(=O)c1cccc(-c2ccccc2)c1 [(28)] | 300 | 
CCCN(C(=O)N[C@@H](CSCc1ccccc1)C(=O)O)C(=O)c1cc(CC(=O)O)cc(-c2ccccc2)c1 [(81)] | 144 | 
CCCN(C(=O)N[C@@H](Cc1ccc2ccccc2c1)C(=O)O)C(=O)c1cccc(-c2ccccc2)c1 [(17)] | 55 | 
CCCN(C(=O)N[C@H](CC(=O)O)Cc1cccc2ccccc12)C(=O)c1cccc(C#Cc2ccccc2)c1 [(119)] |  | IC50 (Bcl-xLΔ25): 67 µM
CCCN(C(=O)N[C@@H](CSCC(C)C)C(=O)O)C(=O)c1cccc(C#Cc2ccncc2)c1 [(150)] |  | Bcl-xLΔ25 IC50 (µM) (Bcl-xLΔ25): n.b.^b
CCCN(C(=O)N[C@@H](Cc1csc2ccccc12)C(=O)O)C(=O)c1cccc(C#Cc2ccccc2)c1 [(117)] |  | IC50 (Bcl-xLΔ25): 35 µM
CCCN(C(=O)N[C@@H](CSCC1CC1)C(=O)O)C(=O)c1cccc(C#Cc2ccccc2)c1 [(128)] |  | IC50 (Bcl-xLΔ25): 53 µM
CSCCN(C(=O)N[C@@H](CSCC(C)C)C(=O)O)C(=O)c1cccc(C#Cc2ccccc2)c1 [(133)] |  | IC50 (Bcl-xLΔ25): 27 µM
CC(C)CSC[C@H](NC(=O)N(CC(C)C)C(=O)c1cccc(C#Cc2ccccc2)c1)C(=O)O [(131)] |  | IC50 (Bcl-xLΔ25): 20 µM
CCCCCSC[C@H](NC(=O)N(CCC)C(=O)c1cccc(C#Cc2ccccc2)c1)C(=O)O [(123)] |  | IC50 (Bcl-xLΔ25): 30 µM
CCCN(C(=O)N[C@@H](CSCc1ccccc1)C(=O)O)C(=O)c1cccc(Cc2ccccc2)c1 [(33)] | 72 | 
CCCN(C(=O)N[C@@H](CSCC(C)C)C(=O)NS(=O)(=O)c1ccc(NCCSc2ccccc2)c([N+](=O)[O-])c1)C(=O)c1cccc(C#Cc2ccccc2)c1 [(156)] |  | IC50 (Bcl-xLΔ25): 10 µM
CCCN(C(=O)N[C@@H](Cc1c[nH]c2ccccc12)C(=O)O)C(=O)c1cccc(-c2ccccc2)c1 [(29)] | 88 | 
O=C([C@H](CSCc1ccccc1)NC(=O)N(Cc1cccc2ccccc12)C(=O)c1cccc(-c2ccc(F)cc2)c1)N1CCOCC1 [(72)] |  | Bcl-wΔ29 IC50 (µM) (Bcl-wΔ29): n.b.^b

SMILES | IC50 (Bcl-wΔ29) [µM] | further results
Cc1cccc(C)c1C(=O)N(C(=O)N[C@@H](CSCc1ccccc1)C(=O)O)C(C)C [(38)] | 297 | 
O=C(O)[C@H](CSCc1ccccc1)NC(=O)N(CCC1CC1)C(=O)c1ccc(-c2ccccc2)cc1 [(43)] | 57 | 
CCCN(C(=O)N[C@@H](COCc1ccccc1)C(=O)O)C(=O)c1cccc(-c2ccccc2)c1 [(30)] | 147 | 
CCCN(C(=O)N[C@@H](CSCc1ccccc1)C(=O)O)C(=O)c1ccc(C#Cc2ccccc2)cc1 [(67)] | 92 | 
CCCN(C(=O)N[C@@H](CCCc1ccccc1)C(=O)O)C(=O)c1cccc(-c2ccccc2)c1 [(19)] | 132 | 
CCCN(C(=O)N[C@@H](C[S+]([O-])Cc1ccccc1)C(=O)O)C(=O)c1cccc(-c2ccccc2)c1 (stereo partly shown) [(31)] | 165 | 
CCCN(C(=O)N[C@@H](CSCc1ccccc1)C(=O)O)C(=O)c1cccc(-c2ccc(Cl)c(Cl)c2)c1 [(58)] | 48 | 
CCCN(C(=O)N[C@@H](CSCc1ccccc1)C(=O)O)C(=O)c1ccc(-c2ccc(C)cc2)cc1 [(62)] | 48 | 
CCCN(C(=O)N[C@@H](CSc1ccccc1)C(=O)O)C(=O)c1cccc(-c2ccccc2)c1 [(22)] | 80 | 
CCCN(C(=O)N[C@@H](CSCc1ccccc1)C(=O)O)C(=O)c1cccc(C#Cc2ccccc2)c1 [(66)] | 58 | 
CCCN(C(=O)N[C@@H](CSCc1ccccc1)C(=O)O)C(=O)c1ccc(Cc2ccccc2)cc1 [(34)] | 72 | 
CCCN(C(=O)N[C@@H](CSCc1ccccc1)C(=O)O)C(=O)c1ccc(-c2ccc(OC)cc2)cc1 [(63)] | 136 | 
CCCN(C(=O)N[C@@H](CCc1ccccc1)C(=O)O)C(=O)c1cccc(-c2ccccc2)c1 [(16)] | 130 | 
CCCN(C(=O)N[C@@H](Cc1ccccc1)C(=O)O)C(=O)c1cccc(-c2ccccc2)c1 [(27)] | 194 | 
CCCN(C(=O)N[C@@H](CSCc1ccccc1)C(=O)O)C(=O)c1ccc(-c2ccccc2Cl)cc1 [(48)] | 68 | 
CCCN(C(=O)N[C@@H](CSCCc1ccncc1)C(=O)O)C(=O)c1cccc(-c2ccccc2)c1 [(25)] | 261 | 
CCCN(C(=O)N[C@@H](CSCc1ccccc1)C(=O)O)C(=O)c1ccc(-c2ccc(Cl)cc2)cc1 [(64)] | 74 | 

Continued, in another order:

IC50 (Bcl-wΔ29) [µM] | SMILES | further results
31 | CCCN(C(=O)N[C@@H](CSCc1ccccc1)C(=O)O)C(=O)c1cccc(-c2cccc3ccccc23)c1 [(13)] | 
31.2 | O=C(O)[C@H](CSCc1ccccc1)NC(=O)N(Cc1cccc2ccccc12)C(=O)c1cccc(-c2ccccc2)c1 [(24)] | 
62 | CCCN(C(=O)N[C@@H](CSCc1ccccc1)C(=O)O)C(=O)c1cccc(-c2ccc(C)cc2)c1 [(47)] | 
41 | CCCN(C(=O)N[C@@H](Cc1ccc(-c2ccccc2)cc1)C(=O)O)C(=O)c1cccc(-c2ccccc2)c1 [(15)] | 
47 | O=C(O)[C@H](CSCc1ccccc1)NC(=O)N(Cc1cccc2ccccc12)C(=O)c1cccc(-c2ccc(F)cc2)c1 [(36)] | 
60 | O=C(O)[C@H](CSCc1ccccc1)NC(=O)N(CCC1CC1)C(=O)c1cccc(-c2ccccc2)c1 [(37)] | 
38 | CCCN(C(=O)N[C@@H](CSCc1ccccc1)C(=O)O)C(=O)c1cccc(-c2ccccc2Cl)c1 [(46)] | 
46 | O=C(O)[C@H](CSCc1ccccc1)NC(=O)N(Cc1cccnc1)C(=O)c1cccc(-c2ccccc2)c1 [(12)] | 
36 | CCCN(C(=O)N[C@@H](CSCc1ccccc1)C(=O)O)C(=O)c1cccc(-c2ccc3ccccc3c2)c1 [(14)] | 
104 | CCCN(C(=O)N[C@@H](CSCc1ccccc1)C(=O)O)C(=O)c1ccc(-c2ccc(F)cc2)cc1 [(11)] | 
68 | CCCN(C(=O)N[C@@H](CSCc1ccccc1)C(=O)O)C(=O)c1cccc(-c2ccc(Cl)cc2)c1 [(59)] | 
76 | CCCN(C(=O)N[C@@H](CSCc1ccccc1)C(=O)O)C(=O)c1ccc(-c2ccccc2)cc1 [(23)] | 
69 | CSCCN(C(=O)N[C@@H](CSCc1ccccc1)C(=O)O)C(=O)c1ccc(-c2ccccc2)cc1 [(45)] | 
84 | CCCN(C(=O)N[C@H](CSCc1ccccc1)C(=O)O)C(=O)c1cccc(-c2ccccc2)c1 [(21)] | 
66 | CCCN(C(=O)N[C@@H](CSCc1ccccc1)C(=O)O)C(=O)c1cccc(-c2ccc(F)cc2)c1 [(35)] | 
50 | CC(C)CCN(C(=O)N[C@@H](CSCc1ccccc1)C(=O)O)C(=O)c1cccc(-c2ccccc2)c1 [(39)] | 
96 | CCCN(C(=O)N[C@@H](CSCc1ccccc1)C(=O)O)C(=O)c1cccc(-c2ccc(OC)cc2)c1 [(52)] | 
63 | CSCCN(C(=O)N[C@@H](CSCc1ccccc1)C(=O)O)C(=O)c1cccc(-c2ccccc2)c1 [(40)] | 
60 | CCCN(C(=O)N[C@@H](Cc1cccc2ccccc12)C(=O)O)C(=O)c1cccc(-c2ccccc2)c1 [(18)] | 
153 | CCN(C(=O)N[C@@H](CSCc1ccccc1)C(=O)O)C(=O)c1cccc(-c2ccccc2)c1 [(70)] | 
